pIC50: −log10 of the molar value. Non-standard residues stand in square brackets, D forms with d. Residues, ends and D or L forms follow the SMILES beside them. *: point of attachment. Palmitoyl = CCCCCCCCCCCCCCCC(=O)*
Columns and labels:
Format in all cases: cell-based
[1] = tested on: MDA-MB-231 triple-negative human breast cancer cells; assay: Cell Titer Blue in vitro cell viability assay, MDA-MB-231; conditions: MDA-MB-231, 72 h, 3 days at 37° C.
Procedure: FIG. 1: Dose Response curve for MBC017 with MDA-MB-231 cells. Compound MBC017 was incubated with MDA-MB-231 triple-negative human breast cancer cells at the indicated concentrations for 3 days at 37° C. prior to Cell Titer Blue fluorescence-based cell viability assay. Normalized cell viability data, expressed as a percentage, are averaged from three biological replicates and standard error represented by error bars for each averaged data point (empty squares). The compound concentrations are represented on log scale on the x-axis in μM units. Data were analyzed using free software called DrFit, as described in Nature Scientific Reports, Article number: 14701, (2015). […] The data were not sufficient to calculate an accurate IC50 value.
A commercially available in vitro cell viability reagent (Cell Titer Blue) was employed to determine the anti-cancer effectiveness of several compounds (1-5) against multiple cancer and healthy tissue-derived cell lines. Cell lines are summarized in Table 2, as follows: All cell lines and information on each cell lines origins and characteristics were procured from ATCC (www.atcc.org). Common names and ATCC product IDs are shown in the first (leftmost) column. From the left, the second and third columns describe the organism and tissue from which each cell line was isolated. The fourth and fifth columns indicate the cell type and disease status (e.g. normal versus carcinoma) of each cell line. The sixth column provides a summary of what compounds were tested against each cell line using an in vitro cell viability assay. Peptide name IDs are shown in parenthesis for each compound, numbered 1 through 5.
The Cell Titer Blue reagent (available from Promega, Inc.) is a buffered solution containing resazurin, a compound that is converted to resorufin, a detectable fluorescent product, by metabolically active cells. The fluorescence intensity of resorufin product therefore serves as a proportional measure of the number of viable cells, permitting changes in cell viability within cancer or other cell lines to be monitored in response to the addition of cytotoxic or cytostatic agents. Various human breast tissue-derived cell lines are widely employed to study the effects of potential therapeutics against breast cancer in vitro. Human breast cancer cell lines may be subdivided into groups based upon hormone receptor status, i.e. estrogen, progesterone and human epidermal growth factor positive or negative. A healthy human breast tissue-derived cell line, hTERT-HME1 may be used to determine the effect of therapeutic agents on healthy human breast tissue in vitro. Additionally, a highly metastatic and aggressive murine (mouse) breast cancer cell line, 4T1, has been extensively used to monitor breast cancer metastasis from the mammary fat pads of mice to the lungs in order to systematically survey the anti-metastatic effectiveness of anti-cancer therapeutics in an in vivo animal model. Metastases to the lungs may be conveniently quantified by a well-established clonogenic assay. Other human tissue-derived model cell lines, representative of various cancers, other than breast cancer, may be utilized to assess the potential of anti-cancer compounds in vitro. These include, K-562 (chronic myelogenous leukemia), HEPG2 (hepatocellular carcinoma), OVCAR-3 (ovarian adenocarcinoma), SK—N—SH (neuroblastoma) and A549 (lung carcinoma). Several compounds were assayed in vitro using the Cell Titer Blue viability assay against an array of cancer cell lines of both human and murine origin plus one healthy human breast cell line (Table 1, FIGS. 1-16). A mouse 4T1 metastasis study was performed to determine the anti-metastatic potential of one compound, MBC0179 (FIG. 17).
Dimethyl sulfoxide (DMSO), Cremophor EL, methylene blue, 100× antibiotic/antimycotic solution, collagenase (Type IV), DNAse I and 6-thioguanine were available from Millipore-Sigma. […]

[2] = tested on: hTERT-HME1 healthy human breast epithelial cells; assay: Cell Titer Blue in vitro cell viability assay, hTERT-HME1; conditions: 72 h, hTERT-HME1 (MEGM), 3 days at 37° C.
Procedure: FIG. 6: Dose Response curve for MBC0179 with hTERT-HME1 cells in MEGM Media. Compound MBC0179 was incubated with […] healthy human breast epithelial cells in growth factor-rich MEGM media at the indicated concentrations for 3 days at 37° C. prior to Cell Titer Blue fluorescence-based cell viability assay. Normalized cell viability data, expressed as a percentage, are averaged from three biological replicates and standard error represented by error bars for each averaged data point (empty squares). The compound concentrations are represented on log scale on the x-axis in μM units. Data were analyzed using free software called DrFit, as described in Nature Scientific Reports, Article number: 14701, (2015). […]
(§1) The Cell Titer Blue reagent (available from Promega, Inc.) is a buffered solution containing resazurin, a compound that is converted to resorufin, a detectable fluorescent product, by metabolically active cells. The fluorescence intensity of resorufin product therefore serves as a proportional measure of the number of viable cells, permitting changes in cell viability within cancer or other cell lines to be monitored in response to the addition of cytotoxic or cytostatic agents. […] Metastases to the lungs may be conveniently quantified by a well-established clonogenic assay. […]

[3] = tested on: MDA-MB-468 triple-negative human breast cancer cells; assay: Cell Titer Blue in vitro cell viability assay, MDA-MB-468; conditions: 72 h, MDA-MB-468 (DMEM), 3 days at 37° C.
Procedure: (§2) FIG. 9: Dose Response curve for MBC0179 with MDA-MB-468 cells. Compound MBC0179 was incubated with MDA-MB-468 triple-negative human breast cancer cells at the indicated concentrations for 3 days at 37° C. prior to Cell Titer Blue fluorescence-based cell viability assay. Normalized cell viability data, expressed as a percentage, are averaged from three biological replicates and standard error represented by error bars for each averaged data point (empty squares). The compound concentrations are represented on log scale on the x-axis in μM units. Data were analyzed using free software called DrFit, as described in Nature Scientific Reports, Article number: 14701, (2015). […]
as §1

[4] = tested on: ZR-75-30 human breast cancer cells; assay: Cell Titer Blue in vitro cell viability assay, ZR-75-30; conditions: 72 h, ZR-75-30 (DMEM), 3 days at 37° C.
Procedure: as §2, with “10:” for “9:”, “ZR-75-30” for “MDA-MB-468”, “ZR-75-30” for “MDA-MB-468 triple-negative”
as §1

[5] = tested on: K-562 human chronic myelogenous leukemia cells; assay: Cell Titer Blue in vitro cell viability assay, K-562; conditions: 72 h, K562 (DMEM), in suspension, 3 days at 37° C.
Procedure: as §2, with “11:” for “9:”, “K-562” for “MDA-MB-468”, “K-562” for “MDA-MB-468 triple-negative”, “chronic myelogenous leukemia cells, a non-adherent cell line,” for “breast cancer cells”
as §1

**Q.** `CCCCCCCCCCCCCCCC(=O)N[C@H](Cc1c[nH]cn1)C(=O)N[C@@H](C(=O)OCC)C(C)C` [Compound 5, N-[N-(1-oxohexadecyl)-D-histidyl]-D-valine ethyl ester] (Palmitoyl-[dH]-[dV]-OEt) was tested. Which pIC50 ([1]; MDA-MB-231 (DMEM)) did it give?
**A.** 4.83

**Q.** What about the pIC50 ([1]; MDA-MB-231 (MEGM)) of the same molecule?
**A.** 5.05

**Q.** What about the pIC50 [2] of the same molecule?
**A.** 3.57

**Q.** And the pIC50 [3]?
**A.** 4.80

**Q.** What about the pIC50 [4] of the same molecule?
**A.** 5.01

**Q.** And the pIC50 [5]?
**A.** 5.21
